The results in this text go back to BindingDB's records for doi:10.1016/j.bmc.2013.03.035 (University of Poitiers, 2013).

Molecules are shown by their SMILES.

A short description of the assay: Inhibition of bovine liver beta-glucosidase.

Broadly, the IC50 is the midpoint of a concentration-inhibition curve. Low readings indicate inhibition by little substance, high ones a need for much substance. For the molecule `CC[C@@H]1NC[C@@H](O)[C@@H](O)[C@H](O)[C@H]1O`, half-maximal inhibition (IC50) was put at 487 µM.
